Test results taken from ChEMBL document CHEMBL6127042, “Design, synthesis and antimycobacterial activity of novel benzothiazinones with improved water solubility” (Eur J Med Chem, 2024).
In brackets after ≈: the same amount, converted by molar mass.

Key:
[1] = Tmax in female ICR mouse at 25 mg/kg, po administered as single dose measured upto 24 hrs by HPLC analysis; format: ADME, organism-based; conditions: in vivo
[2] = test system: Mycobacterium tuberculosis; assay: Antitubercular activity against Mycobacterium tuberculosis H37Rv ATCC 27294 assessed as bacterial growth inhibition incubated for 7 days in 7H9 medium by alamar blue staining based microplate fluorometric analysis; format: functional; conditions: H37Rv ATCC 27294, 168 h, time 7 day
[3] = Water solubility of the compound in 80% acetronitrile/20% water meausred after 24 hrs by HPLC-UV analysis; format: physicochemical; conditions: 80% acetonitrile/20% water
[4] = Half life in female ICR mouse at 25 mg/kg, po administered as single dose measured upto 24 hrs by HPLC analysis; format: ADME, organism-based; conditions: in vivo
[5] = Cmax in female ICR mouse at 25 mg/kg, po administered as single dose measured upto 24 hrs by HPLC analysis; format: ADME, organism-based; conditions: in vivo
[6] = AUC (0 to infinity) in female ICR mouse at 25 mg/kg, po administered as single dose measured upto 24 hrs by HPLC analysis; format: ADME, organism-based; conditions: in vivo
[7] = Cytotoxicity against African green monkey Vero cells assessed as reduction in cell viability incubated for 72 hrs by MTT assay; format: toxicity, cell-based; conditions: chlorocebus sabaeus
[8] = Acute toxicity in female ICR mouse assessed as animal death at 1000 mg/kg, po administered as single dose measured for 7 days; format: organism-based; conditions: in vivo, 168 h, time 7 day
[9] = Acute toxicity in female ICR mouse assessed as change in body weight at 1000 mg/kg, po administered as single dose measured for 7 days; format: organism-based; conditions: in vivo, 168 h, time 7 day
[10] = biological target: hERG (KCNH2) (Homo sapiens, UniProt Q12809); assay: Inhibition of human ERG expressed in HEK293 cells at 10 uM by electrophysiological method relative to control; format: toxicity, cell-based; conditions: HEK293 cells expressing hERG
hERG (KCNH2), sequence (Q12809 whole entry): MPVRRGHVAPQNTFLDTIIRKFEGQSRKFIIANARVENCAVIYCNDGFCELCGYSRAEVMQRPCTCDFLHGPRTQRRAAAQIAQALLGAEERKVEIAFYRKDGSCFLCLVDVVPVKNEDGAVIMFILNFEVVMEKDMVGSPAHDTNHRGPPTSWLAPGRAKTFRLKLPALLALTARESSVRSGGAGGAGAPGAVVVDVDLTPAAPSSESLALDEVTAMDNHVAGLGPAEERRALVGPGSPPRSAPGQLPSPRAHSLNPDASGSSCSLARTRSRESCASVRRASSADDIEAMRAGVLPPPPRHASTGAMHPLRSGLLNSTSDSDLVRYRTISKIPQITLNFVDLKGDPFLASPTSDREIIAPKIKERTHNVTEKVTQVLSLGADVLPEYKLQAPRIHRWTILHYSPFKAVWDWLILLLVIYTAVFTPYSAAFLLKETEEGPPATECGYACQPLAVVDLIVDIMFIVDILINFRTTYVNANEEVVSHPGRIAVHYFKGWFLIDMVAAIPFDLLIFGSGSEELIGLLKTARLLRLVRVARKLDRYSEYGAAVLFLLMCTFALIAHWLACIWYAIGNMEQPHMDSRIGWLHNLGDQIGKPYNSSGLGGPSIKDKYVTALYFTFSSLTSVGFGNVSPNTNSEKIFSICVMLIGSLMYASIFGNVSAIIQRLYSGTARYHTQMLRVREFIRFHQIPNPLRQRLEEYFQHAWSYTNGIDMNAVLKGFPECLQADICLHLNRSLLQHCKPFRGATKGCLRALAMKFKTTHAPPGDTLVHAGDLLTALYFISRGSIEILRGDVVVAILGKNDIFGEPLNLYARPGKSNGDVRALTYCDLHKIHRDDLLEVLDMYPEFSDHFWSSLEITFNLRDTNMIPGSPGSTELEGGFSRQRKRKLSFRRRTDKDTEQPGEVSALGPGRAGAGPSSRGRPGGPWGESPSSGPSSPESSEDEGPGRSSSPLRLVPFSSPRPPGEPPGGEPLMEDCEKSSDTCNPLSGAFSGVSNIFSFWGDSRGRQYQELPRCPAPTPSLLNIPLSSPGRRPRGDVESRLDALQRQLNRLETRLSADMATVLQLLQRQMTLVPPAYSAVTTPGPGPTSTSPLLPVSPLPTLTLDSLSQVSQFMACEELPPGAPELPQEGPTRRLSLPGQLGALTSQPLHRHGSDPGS

[11] = Acute toxicity in female ICR mouse assessed as lethal dose administered as single oral dose measured for 7 days; conditions: in vivo, time 7 day
[12] = Water solubility of the compound in 60% acetronitrile/40% water meausred after 24 hrs by HPLC-UV analysis; format: physicochemical; conditions: 60% acetonitrile/40% water

Compound	MIC [2] [µM]	solubility at 24 h [3] [µg/mL]	CC50 at 72 h [7] [µM]	other results
CON=C1CCC(CN2CCN(c3nc(=O)c4cc(C(F)(F)F)cc([N+](=O)[O-])c4s3)CC2)CC1 (configuration not stated)	< 0.035	1.6 (≈ 3.2 µM)		Tmax [1]: 0.69 h; half-life [4]: 5.24 h; Cmax [5]: 8370 ng/mL; AUC(0-inf) [6]: 16900 ng·h/mL
O=C(O)CNC(=O)CCON=C1CCC(CN2CCN(c3nc(=O)c4cc(C(F)(F)F)cc([N+](=O)[O-])c4s3)CC2)CC1 (configuration not stated)	0.338 (≈ 0.208 µg/mL)		> 104	
CC(C)(C)OC(=O)NCCON=C1CCC(CN2CCN(c3nc(=O)c4cc(C(F)(F)F)cc([N+](=O)[O-])c4s3)CC2)CC1 (configuration not stated)	0.033 (≈ 0.0207 µg/mL)	2.4 (≈ 3.82 µM)	> 102	
CC(C)(C)OC(=O)CNC(=O)CCON=C1CCC(CN2CCN(c3nc(=O)c4cc(C(F)(F)F)cc([N+](=O)[O-])c4s3)CC2)CC1 (configuration not stated)	< 0.026		> 95	
O=C(O)CCON=C1CCC(CN2CCN(c3nc(=O)c4cc(C(F)(F)F)cc([N+](=O)[O-])c4s3)CC2)CC1 (configuration not stated)	0.214 (≈ 0.119 µg/mL)		> 115	
C[C@H](NC(=O)CON=C1CCC(CN2CCN(c3nc(=O)c4cc(C(F)(F)F)cc([N+](=O)[O-])c4s3)CC2)CC1)C(=O)O (some centres not stated)	2.9 (≈ 1.79 µg/mL)			
O=C(O)CON=C1CCC(CN2CCN(c3nc(=O)c4cc(C(F)(F)F)cc([N+](=O)[O-])c4s3)CC2)CC1 (configuration not stated)	< 0.029	1200 (≈ 2210 µM)	> 118	Tmax [1]: 0.33 h; Activity [8]: Non-Toxic; Activity [9]: Toxic; inhibition at 10 µM [10]: 5.8%; half-life [4]: 3.06 h; Cmax [5]: 770 ng/mL; AUC(0-inf) [6]: 1410 ng·h/mL; LD50 at 168 h [11]: > 1000 mg/kg
CC(C)(ON=C1CCC(CN2CCN(c3nc(=O)c4cc(C(F)(F)F)cc([N+](=O)[O-])c4s3)CC2)CC1)C(=O)NCC(=O)O (configuration not stated)	0.653 (≈ 0.41 µg/mL)	530 (≈ 843 µM)		
CC(C)(C)OC(=O)CNC(=O)C(C)(C)ON=C1CCC(CN2CCN(c3nc(=O)c4cc(C(F)(F)F)cc([N+](=O)[O-])c4s3)CC2)CC1 (configuration not stated)	0.086 (≈ 0.0589 µg/mL)	4 (≈ 5.84 µM)	> 94	
NCCON=C1CCC(CN2CCN(c3nc(=O)c4cc(C(F)(F)F)cc([N+](=O)[O-])c4s3)CC2)CC1 (configuration not stated)	0.091 (≈ 0.0481 µg/mL)			Tmax [1]: 1 h; Activity [8]: Non-Toxic; Activity [9]: Toxic; inhibition at 10 µM [10]: 5.66%; half-life [4]: 3.6 h; solubility at 24 h [12]: > 2000 µg/mL; Cmax [5]: 798 ng/mL; AUC(0-inf) [6]: 3840 ng·h/mL; LD50 at 168 h [11]: > 1000 mg/kg
C[C@H](NC(=O)CON=C1CCC(CN2CCN(c3nc(=O)c4cc(C(F)(F)F)cc([N+](=O)[O-])c4s3)CC2)CC1)C(=O)OC(C)(C)C (some centres not stated)	0.181 (≈ 0.121 µg/mL)		> 95	
CC(C)(C)OC(=O)CNC(=O)CON=C1CCC(CN2CCN(c3nc(=O)c4cc(C(F)(F)F)cc([N+](=O)[O-])c4s3)CC2)CC1 (configuration not stated)	0.044 (≈ 0.0289 µg/mL)		> 98	
COC(=O)CNC1CCC(CN2CCN(c3nc(=O)c4cc(C(F)(F)F)cc([N+](=O)[O-])c4s3)CC2)CC1 (configuration not stated)	1.05 (≈ 0.573 µg/mL)			
O=C(O)CNC1CCC(CN2CCN(c3nc(=O)c4cc(C(F)(F)F)cc([N+](=O)[O-])c4s3)CC2)CC1 (configuration not stated)	> 18.9		> 121	
C[C@H](NC(=O)C(C)(C)ON=C1CCC(CN2CCN(c3nc(=O)c4cc(C(F)(F)F)cc([N+](=O)[O-])c4s3)CC2)CC1)C(=O)O (some centres not stated)	1.33 (≈ 0.853 µg/mL)			
C[C@H](NC(=O)C(C)(C)ON=C1CCC(CN2CCN(c3nc(=O)c4cc(C(F)(F)F)cc([N+](=O)[O-])c4s3)CC2)CC1)C(=O)OC(C)(C)C (some centres not stated)	< 0.023		> 92	
CC(C)(ON=C1CCC(CN2CCN(c3nc(=O)c4cc(C(F)(F)F)cc([N+](=O)[O-])c4s3)CC2)CC1)C(=O)O (configuration not stated)	0.114 (≈ 0.0652 µg/mL)	490 (≈ 857 µM)	> 112	
O=C(O)CNC(=O)CON=C1CCC(CN2CCN(c3nc(=O)c4cc(C(F)(F)F)cc([N+](=O)[O-])c4s3)CC2)CC1 (configuration not stated)	1.54 (≈ 0.925 µg/mL)			
CC(C)(C)OC(=O)CCON=C1CCC(CN2CCN(c3nc(=O)c4cc(C(F)(F)F)cc([N+](=O)[O-])c4s3)CC2)CC1 (configuration not stated)	< 0.026		> 104	
NNC(=O)c1ccncc1 [ISONIAZID]	0.342 (≈ 0.0469 µg/mL)			
O=c1nc(N2CCN(CC3CCCCC3)CC2)sc2c([N+](=O)[O-])cc(C(F)(F)F)cc12 [MACOZINONE]	< 0.035	1.1 (≈ 2.41 µM)	> 140	Tmax [1]: 2 h; half-life [4]: 6.43 h; Cmax [5]: 295 ng/mL; AUC(0-inf) [6]: 2310 ng·h/mL
CO[C@H]1/C=C/O[C@@]2(C)Oc3c(C)c(O)c4c(O)c(c(/C=N/N5CCN(C)CC5)c(O)c4c3C2=O)NC(=O)/C(C)=C\C=C\[C@H](C)[C@H](O)[C@@H](C)[C@@H](O)[C@@H](C)[C@H](OC(C)=O)[C@@H]1C [RIFAMPIN]	0.04 (≈ 0.0329 µg/mL)			
